Data published in patent US20240261236A1, “METHODS OF USING NMDA RECEPTOR ANTAGONISTS” (Seelos Therapeutics, Inc., priority 2021, published 2024).

Columns and labels:
[1] = Hemodynamic effects (blood pressure), Phase 2 Part 1; assay type: in vivo, human; details: for Diastolic BP: baseline 79.0; for Systolic BP: baseline 121
Text: The study schedule is identical for Parts 1 and 2. After admission to the emergency room or hospital, each subject will participate in a 1 to 2 day screening phase, a 16-day treatment phase including SOC during which study drug will be administered 2 times per week, for a total of 5 doses across the 16-day treatment period and a 2-week safety follow-up phase for a total of up to 5 weeks of study participation. Subjects will be treated as inpatients for approximately 7 days (including screening), and assuming the subject meets readiness for discharge criteria, will be discharged on Day 6 to continue the trial as outpatients, provided it is clinically appropriate to do so. Subjects will return to the clinic to receive study drug and to undergo study assessments 2 times per week until Day 16. Subjects will be evaluated for efficacy using multiple psychometric scales and for safety using clinical laboratory assessments, electrocardiograms (ECGs), vital signs, and physical examinations. After the last dose of study drug, subjects will continue to be monitored for safety for 2 weeks, including 4 in-person safety follow-up visits on Days 19, 22, 25/26, and 29/30.

[2] = tested on: adults with major depressive disorder (MDD) who are at imminent risk of suicide; test: MADRS item 10 (suicidal thoughts), Phase 2 Part 1; assay type: in vivo, human; details: for MADRS item 10 (suicidality) score: 24 hours post-administration, baseline 5 units; for MADRS Item 10 mean score: baseline 5.2; for MADRS Suicide Item-10 response rate: summary through Day 29/30
Text: The Montgomery-Åsberg Depression Rating Scale (MADRS) is a diagnostic questionnaire that can be used to measure the severity of a depressive episode in a subject. In some embodiments, the MADRS can be used to measure suicidal ideation. For example, the MADRS includes 10 items directed to the following: 1) apparent sadness (e.g., representing despondency, gloom and despair that is more than just ordinary transient low spirits that is reflected in speech, facial expression, and posture); 2) reported sadness (e.g., representing reports of depressed mood, regardless of whether it is reflected in appearance or not and can include low spirits, despondency or the feeling of being beyond help and without hope); 3) inner tension (e.g., representing feelings of ill-defined discomfort, edginess, inner turmoil, mental tension mounting to either panic, dread or anguish); 4) reduced sleep (e.g., representing the experience of reduced duration or depth of sleep compared to the subject's own normal pattern when well); 5) reduced appetite (e.g., representing the feeling of a loss of appetite compared with when-well); 6) concentration difficulties (e.g., representing difficulties in collecting one's thoughts mounting to an incapacitating lack of concentration); 7) lassitude (e.g., representing difficulty in getting started or slowness in initiating and performing everyday activities); 8) inability to feel (e.g., representing the subjective experience of reduced interest in the surroundings, or activities that normally give pleasure, and the ability to react with adequate emotion to circumstances or people is reduced); 9) pessimistic thoughts (e.g., representing thoughts of guilt, inferiority, self-reproach, sinfulness, remorse and ruin); and 10) suicidal thoughts (e.g., representing the feeling that life is not worth living, that a natural death would be welcome, suicidal thoughts, and preparations for suicide). Each item is rated from 0 units to 6 units, with 0 reflecting that the subject is not at all as described by the item and 6 reflecting that the subject is extremely like what is described by the item. […] As another example, for suicidal thoughts, a score of 0 units can indicate that the subject enjoys life or takes it as it comes; a score of 2 units can indicate that the subject is weary of life and may have fleeting suicidal thoughts; a score of 4 units can indicate that the subject feels he or she would probably be better off dead (e.g., suicidal thoughts are common, and suicide is considered as a possible solution, but without specific plans or intention); and a score of 6 units can indicate that the subject has explicit plans for suicide when there is an opportunity (e.g., the subject has made active preparations for suicide). Thus, the total score, after summation of each score for each item, is on a scale of 0 units to 60 units.
In some embodiments, item 10, e.g., suicidal thoughts, of the MADRS can be used to measure suicidal ideation.
The secondary endpoints are the change from baseline at 24 hours, as well as at Day 16, in the following: • (1) S-STS total score • (2) MADRS Total at Day 16 (only) • (3) Clinical Global Impression (CGI) of Severity for SI/B (CGIS-SI/B) and Change in SI/B (CGIC-SI/B) • (4) Patient Global Impression (PGI) of Severity for SI/B (PGIS-SI/B) and Change in SI/B (PGIC-SI/B • (5) S-STS Clinician-Rated Global Severity of Suicidal Impulses, Thoughts, and Behaviors • (6) S-STS Clinician judgment of subject's risk of a suicide attempt or death by suicide at this time • (7) S-STS Clinician judgment of subject's likelihood (risk) of making a suicide attempt or of dying by suicide in the next 7 days • (8) S-STS Subject-rated global severity of suicidal impulses, thoughts, and behavior • (9) S-STS Subject-rated treatment needed score • (10) MADRS item 10 response rate (response ≤3 units) • (11) MADRS Total response (total score ≥50% reduction from baseline) • (12) MADRS Total remission (total score ≤12 units) […]

SMILES: CNC1(c2ccccc2Cl)CCCCC1=O (racemic) [intranasal racemic ketamine, 1:1 mixture of the two enantiomers of ketamine: (R)-2-(2-chlorophenyl)-2-(methylamino)cyclohexanone and (S)-2-(2-chlorophenyl)-2-(methylamino)cyclohexanone]
- Diastolic BP ([1]; 1 hour post first dose): 80.9
- Systolic BP ([1]; 1 hour post first dose): 125.8
- Diastolic BP ([1]; 2 hours post first dose): 78.5
- Systolic BP ([1]; 2 hours post first dose): 121.3
- sustained response on MADRS Item 10, time after the final administration ([2]; 90 mg IN+SOC): 15 days
- MADRS item 10 (suicidality) score ([2]; 90 mg IN+SOC, Subject 1, range 0-6): 0 units
- MADRS item 10 (suicidality) score ([2]; 90 mg IN+SOC, second subject (not given)): 0 units
- subjects who experienced MADRS Item 10 response ([2]; 24 hours post-dose): 94.1%
- MADRS Item 10 mean score ([2]; Day 1): 0.8
- subjects who experienced MADRS Item 10 response ([2]; Day 16): 100%
- MADRS Item 10 mean score ([2]; Day 29): 0.0
- subjects who experienced MADRS Item 10 response ([2]; study end (Day 29/30)): 100%
- MADRS Suicide Item-10 response rate ([2]; Day 1): 94%
- MADRS Suicide Item-10 response rate ([2]; Day 16): 100%
